Test results reported in US20260317299A1, “PIKFYVE PROTEIN KINASE DEGRADATION AGENT AND USE THEREOF” (Shanghai Institute of Organic Chemistry, Chinese Academy of …, priority 2023, published 2026).

Molecular target: T1, PIKfyve (Homo sapiens, UniProt Q9Y2I7)
T1 construct: endogenous in cells; host or cells: VCaP
Test: Degradation of PIKfyve proteins in VCaP tumor cells (24 h, Western blot)
Format: cell-based
Conditions: 37° C., compared with DMSO control, WB, read-out: DC50 (concentration that achieves 50% degradation activity)
Protocol: Method: 200 μL of cells at a density of 5×10^6 cells/ml were inoculated into a 6-well plate, and then different concentrations of drugs were added. The cells were treated at 37° C. for 24 h. The […] was collected and washed with PBS twice. Then, 100-200 μL of 1×SDS lysate was added, and the cell lysate was collected into a centrifuge tube. The cells were disrupted ultrasonically for 10-20 sec, and boiled for 10 min. Protein samples were subjected to SDS-PAGE electrophoresis at a voltage of 90 V, transferred to PVDF membranes at 110 V, blocked with 5% BSA for 4 h, incubated with primary antibodies (PIKfyve, GAPDH) at 4° C. overnight, and incubated with secondary antibodies (anti-Rabbit IgG or anti-Mouse IgG) at room temperature. The membranes were washed with TBST buffer, developed with an ECL developing solution, and then imaged to obtain protein band signals, with single-concentration WB results as shown in FIG. 1. Compared with the DMSO control group, the concentration that achieves 50% degradation activity is defined as DC50.

T1 sequence (Q9Y2I7 whole entry): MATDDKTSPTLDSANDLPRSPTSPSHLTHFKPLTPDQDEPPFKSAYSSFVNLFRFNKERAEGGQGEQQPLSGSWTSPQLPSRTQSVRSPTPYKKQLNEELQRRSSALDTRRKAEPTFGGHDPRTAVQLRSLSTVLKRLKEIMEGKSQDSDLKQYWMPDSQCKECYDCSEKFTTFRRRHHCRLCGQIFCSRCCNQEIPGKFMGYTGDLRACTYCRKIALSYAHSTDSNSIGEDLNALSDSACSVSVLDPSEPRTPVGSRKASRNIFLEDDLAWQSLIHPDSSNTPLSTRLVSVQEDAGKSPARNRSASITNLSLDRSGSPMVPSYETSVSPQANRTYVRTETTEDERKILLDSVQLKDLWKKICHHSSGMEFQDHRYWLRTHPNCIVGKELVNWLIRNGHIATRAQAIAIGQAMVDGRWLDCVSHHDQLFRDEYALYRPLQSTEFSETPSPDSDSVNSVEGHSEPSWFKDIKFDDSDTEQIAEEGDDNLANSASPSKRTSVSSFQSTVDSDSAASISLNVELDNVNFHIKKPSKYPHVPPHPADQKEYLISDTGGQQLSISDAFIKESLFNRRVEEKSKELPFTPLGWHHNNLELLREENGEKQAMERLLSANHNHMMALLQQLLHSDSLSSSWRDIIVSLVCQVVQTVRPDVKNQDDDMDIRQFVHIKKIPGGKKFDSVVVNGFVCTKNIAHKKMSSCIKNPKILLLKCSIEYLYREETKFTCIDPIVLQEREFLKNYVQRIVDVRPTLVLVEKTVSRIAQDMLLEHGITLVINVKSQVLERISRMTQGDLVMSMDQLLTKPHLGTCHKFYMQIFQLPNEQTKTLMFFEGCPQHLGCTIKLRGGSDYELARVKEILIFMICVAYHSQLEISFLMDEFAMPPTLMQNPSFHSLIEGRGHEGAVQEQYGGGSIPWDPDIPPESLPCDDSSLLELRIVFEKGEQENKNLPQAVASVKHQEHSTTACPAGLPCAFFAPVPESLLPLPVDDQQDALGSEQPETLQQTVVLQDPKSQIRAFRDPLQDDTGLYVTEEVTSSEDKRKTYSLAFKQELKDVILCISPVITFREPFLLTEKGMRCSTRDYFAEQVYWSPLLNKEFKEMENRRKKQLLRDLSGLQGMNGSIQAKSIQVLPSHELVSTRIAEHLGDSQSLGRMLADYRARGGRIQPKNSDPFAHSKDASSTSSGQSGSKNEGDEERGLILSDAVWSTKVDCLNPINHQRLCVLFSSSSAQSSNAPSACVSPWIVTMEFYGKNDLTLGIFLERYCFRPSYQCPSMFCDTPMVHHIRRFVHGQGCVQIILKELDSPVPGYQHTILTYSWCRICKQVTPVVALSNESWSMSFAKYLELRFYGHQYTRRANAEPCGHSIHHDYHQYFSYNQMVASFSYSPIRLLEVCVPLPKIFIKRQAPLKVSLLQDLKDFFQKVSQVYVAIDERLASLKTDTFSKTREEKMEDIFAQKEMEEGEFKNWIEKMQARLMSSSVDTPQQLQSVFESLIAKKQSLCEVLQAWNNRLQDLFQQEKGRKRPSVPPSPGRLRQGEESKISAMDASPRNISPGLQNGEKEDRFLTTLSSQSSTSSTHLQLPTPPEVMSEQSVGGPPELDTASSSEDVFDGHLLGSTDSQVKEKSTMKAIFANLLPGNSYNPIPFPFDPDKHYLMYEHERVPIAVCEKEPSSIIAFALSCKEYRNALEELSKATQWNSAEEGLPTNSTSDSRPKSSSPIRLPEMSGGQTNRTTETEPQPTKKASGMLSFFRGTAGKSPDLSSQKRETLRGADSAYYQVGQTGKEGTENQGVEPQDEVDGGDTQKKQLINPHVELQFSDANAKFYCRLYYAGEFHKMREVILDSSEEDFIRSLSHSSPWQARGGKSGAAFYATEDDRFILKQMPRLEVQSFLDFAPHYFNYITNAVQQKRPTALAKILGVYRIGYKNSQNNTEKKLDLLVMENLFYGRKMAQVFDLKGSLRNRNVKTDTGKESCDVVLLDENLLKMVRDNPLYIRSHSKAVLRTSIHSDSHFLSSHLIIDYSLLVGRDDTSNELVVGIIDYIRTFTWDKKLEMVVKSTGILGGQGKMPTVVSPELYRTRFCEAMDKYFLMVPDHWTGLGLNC

SMILES | DC50 [nM]
Cc1cccc(/C=N/Nc2cc(N3CCOCC3)nc(OCCc3ccc(NC(=O)CCCCC(=O)Nc4ccc5c(c4)CN(C4CCC(=O)NC4=O)C5=O)cc3)n2)c1 (centres unmarked) [Example 25, (E)-N^1-(2-(2,6-dioxopiperidin-3-yl)-1-oxoisoindolin-5-yl)-N^6-(4-(2-((4-(2-(3-methylbenzylidene)hydrazino)-6-morpholinopyrimidin-2-yl)oxy)ethyl)phenyl)adipamide] | 100 to 10000
Cc1cccc(-c2ccn(-c3cc(N4CCOCC4)nc(OCCc4ccc(C#CC5CCN(C(=O)C[C@H](NC(=O)[C@@H]6C[C@@H](O)CN6C(=O)[C@@H](NC(=O)C6(F)CC6)C(C)(C)C)c6ccc(-c7scnc7C)cc6)CC5)cc4)n3)n2)c1 [Example 70, (2S,4R)-1-((S)-2-(1-fluorocyclopropane-1-carboxamido)-3,3-dimethylbutanoyl)-4-hydroxy-N—((S)-1-(4-(4-methylthiazol-5-yl)phenyl)-3-(4-((4-(2-((4-morpholino-6-(3-(m-tolyl)-1H-pyrazol-1-yl)pyrimidin-2-yl)oxy)ethyl)phenyl)ethynyl)piperidin-1-yl)-3-oxopropyl) pyrrolidine-2-carboxamide] | 1 to 100
Cc1cccc(/C=N/Nc2cc(N3CCOCC3)nc(OCCc3ccc(NC(=O)CCCNC(=O)COc4cc(-c5scnc5C)ccc4CNC(=O)[C@@H]4C[C@@H](O)CN4C(=O)[C@@H](NC(=O)C4(F)CC4)C(C)(C)C)cc3)n2)c1 [Example 55, (2S,4R)-1-((S)-2-(1-fluorocyclopropane-1-carboxamido)-3,3-dimethylbutanoyl)-4-hydroxy-N-(2-(2-((4-((4-(2-((4-(2-((E)-3-methylbenzylidene)hydrazino)-6-morpholinopyrimidin-2-yl)oxy)ethyl)phenyl)amino)-4-oxobutyl)amino)-2-oxoethoxy)-4-(4-methylthiazol-5-yl)benzyl)pyrrolidine-2-carboxamide] | 1 to 100
Cc1cccc(-c2ccn(-c3cc(N4CCOCC4)nc(OCCc4ccc(NC(=O)NC5CN(C(=O)CC[C@H](NC(=O)[C@@H]6C[C@@H](O)CN6C(=O)[C@@H](NC(=O)C6(F)CC6)C(C)(C)C)c6ccc(-c7scnc7C)cc6)C5)cc4)n3)n2)c1 [Example 74, (2S,4R)-1-((S)-2-(1-fluorocyclopropane-1-carboxamido)-3,3-dimethylbutanoyl)-4-hydroxy-N—((S)-1-(4-(4-methylthiazol-5-yl)phenyl)-4-(3-(3-(4-(2-((4-morpholino-6-(3-(m-tolyl)-1H-pyrazol-1-yl)pyrimidin-2-yl)oxy)ethyl)phenyl)ureido)azetidin-1-yl)-4-oxobutyl) pyrrolidine-2-carboxamide] | 1 to 100
Cc1cccc(/C=N/Nc2cc(N3CCOCC3)nc(OCCc3ccc(NC(=O)CCCCCCCCC(=O)Nc4cccc5c4CN(C4CCC(=O)NC4=O)C5=O)cc3)n2)c1 (centres unmarked) [Example 22, (E)-N^1-(2-(2,6-dioxopiperidin-3-yl)-1-oxoisoindolin-4-yl)-N^10-(4-(2-((4-(2-(3-methylbenzylidene)hydrazino)-6-morpholinopyrimidin-2-yl)oxy)ethyl)phenyl)decanediamide] | 100 to 10000
Cc1cccc(/C=N/Nc2cc(N3CCOCC3)nc(OCCc3ccc(NC(=O)CCCCCCC(=O)Nc4cccc5c4CN(C4CCC(=O)NC4=O)C5=O)cc3)n2)c1 (centres unmarked) [Example 21, (E)-N^1-(2-(2,6-dioxopiperidin-3-yl)-1-oxoisoindolin-4-yl)-N^8-(4-(2-((4-(2-(3-methylbenzylidene)hydrazino)-6-morpholinopyrimidin-2-yl)oxy)ethyl)phenyl)octanediamide] | 1 to 100
Cc1cccc(-c2ccn(-c3cc(N4CCOCC4)nc(OCCc4ccc(NC(=O)NC5CCN(C(=O)CC[C@H](NC(=O)[C@@H]6C[C@@H](O)CN6C(=O)[C@@H](NC(=O)C6(F)CC6)C(C)(C)C)c6ccc(-c7scnc7C)cc6)CC5)cc4)n3)n2)c1 [Example 79, (2S,4R)-1-((S)-2-(1-fluorocyclopropane-1-carboxamido)-3,3-dimethylbutanoyl)-4-hydroxy-N—((S)-1-(4-(4-methylthiazol-5-yl)phenyl)-4-(4-(3-(4-(2-((4-morpholino-6-(3-(m-tolyl)-1H-pyrazol-1-yl)pyrimidin-2-yl)oxy)ethyl)phenyl)ureido)piperidin-1-yl)-4-oxobutyl) pyrrolidine-2-carboxamide] | 1 to 100
Cc1cccc(/C=N/Nc2cc(N3CCOCC3)nc(OCCc3ccc(NC(=O)CCCCCCC(=O)Nc4ccc5c(c4)C(=O)N(C4CCC(=O)NC4=O)C5)cc3)n2)c1 (centres unmarked) [Example 30, (E)-N^1-(2-(2,6-dioxopiperidin-3-yl)-3-oxoisoindol-5-yl)-N^8-(4-(2-((4-(2-(3-methylbenzylidene)hydrazino)-6-morpholinopyrimidin-2-yl)oxy)ethyl)phenyl)octanediamide] | 1 to 100
Cc1cccc(/C=N/Nc2cc(N3CCOCC3)nc(OCCc3ccc(NC(=O)CCCCCNC(=O)CC[C@H](NC(=O)[C@@H]4C[C@@H](O)CN4C(=O)[C@@H](NC(=O)C4(F)CC4)C(C)(C)C)c4ccc(-c5scnc5C)cc4)cc3)n2)c1 [Example 52, (2S,4R)-1-((S)-2-(1-fluorocyclopropane-1-carboxamido)-3,3-dimethylbutanoyl)-4-hydroxy-N—((S)-4-((6-((4-(2-((4-(2-((E)-3-methylbenzylidene)hydrazino)-6-morpholinopyrimidin-2-yl)oxy)ethyl)phenyl)amino)-6-oxohexyl)amino)-1-(4-(4-methylthiazol-5-yl)phenyl)4-oxobutyl)pyrrolidine-2-carboxamide] | 1 to 100
Cc1cccc(/C=N/Nc2cc(N3CCOCC3)nc(OCCc3ccc(NC(=O)CCCC(=O)N[C@H](C(=O)N4C[C@H](O)C[C@H]4C(=O)N[C@@H](C)c4ccc(-c5scnc5C)cc4)C(C)(C)C)cc3)n2)c1 [Example 45] | 1 to 100
Cc1cccc(/C=N/Nc2cc(N3CCOCC3)nc(OCCc3ccc(NC(=O)CCCCCCC(=O)N[C@H](C(=O)N4C[C@H](O)C[C@H]4C(=O)NCc4ccc(-c5scnc5C)cc4)C(C)(C)C)cc3)n2)c1 [Example 39, N^1—((S)-1-((2S,4R)-4-hydroxy-2-((4-(4-methylthiazol-5-yl)benzyl)carbamoyl)pyrrolidine-1-yl)-3,3-dimethyl-1-oxobutan-2-yl)-N^8-(4-(2-((4-(2-((E)-3-methylbenzylidene) hydrazino)-6-morpholinopyrimidin-2-yl)oxy)ethyl)phenyl)octanediamide] | 1 to 100
Cc1cccc(-c2ccn(-c3cc(N4CCOCC4)nc(Oc4ccc(N5CCC(N6CCN(c7cc8c(cc7F)C(=O)N(C7CCC(=O)NC7=O)C8=O)CC6)CC5)cc4)n3)n2)c1 (centres unmarked) [Example 94, 2-(2,6-Dioxopiperidin-3-yl)-5-fluoro-6-(4-(1-(4-((4-morpholino-6-(3-(m-tolyl)-1H-pyrazol-1-yl)pyrimidin-2-yl)oxy)phenyl)piperidin-4-yl)piperazin-1-yl)isoindoline-1,3-dione] | 100 to 10000
Cc1cccc(/C=N/Nc2cc(N3CCOCC3)nc(OCCc3ccc(NC(=O)CCCCCCCCCNc4ccc5c(c4)C(=O)N(C4CCC(=O)NC4=O)C5=O)cc3)n2)c1 (centres unmarked) [Example 19, (E)-10-((2-(2,6-dioxopiperidin-3-yl)-1,3-dioxoisoindolin-5-yl)amino)-N-(4-(2-((4-(2-(3-methylbenzylidene)hydrazino)-6-morpholinopyrimidin-2-yl)oxy)ethyl)phenyl) decanamide] | 100 to 10000
Cc1cccc(/C=N/Nc2cc(N3CCOCC3)nc(OCCc3ccc(NC(=O)CSC(C)(C)[C@H](NC(=O)C4(F)CC4)C(=O)N4C[C@H](O)C[C@H]4C(=O)NCc4ccc(-c5scnc5C)cc4)cc3)n2)c1 [Example 57, (2S,4R)-1-((R)-2-(1-fluorocyclopropane-1-carboxamido)-3-methyl-3-((2-((4-(2-((4-(2-((E)-3-methylbenzylidene)hydrazino)-6-morpholinopyrimidin-2-yl)oxy)ethyl)phenyl)amino)-2-oxoethyl)thio)butanoyl)-4-hydroxy-N-(4-(4-methylthiazol-5-yl)benzyl)pyrrolidine-2-carboxamide] | 1 to 100
Cc1cccc(-c2ccn(-c3cc(N4CCOCC4)nc(OC4CCN(c5ccc(CN6CCN(c7cc8c(cc7F)C(=O)N(C7CCC(=O)NC7=O)C8=O)CC6)cc5)CC4)n3)n2)c1 (centres unmarked) [Example 95, 2-(2,6-Dioxopiperidin-3-yl)-5-fluoro-6-(4-(4-(4-((4-morpholino-6-(3-(m-tolyl)-1H-pyrazol-1-yl)pyrimidin-2-yl)oxy)piperidin-1-yl)benzyl)piperazin-1-yl)isoindoline-1,3-dione] | 100 to 10000
Cc1cccc(/C=N/Nc2cc(N3CCOCC3)nc(OCCc3ccc(NC(=O)CCCCCCCCC(=O)Nc4ccc5c(c4)CN(C4CCC(=O)NC4=O)C5=O)cc3)n2)c1 (centres unmarked) [Example 27, (E)-N^1-(2-(2,6-dioxopiperidin-3-yl)-1-oxoisoindolin-5-yl)-N^10-(4-(2-((4-(2-(3-methylbenzylidene)hydrazino)-6-morpholinopyrimidin-2-yl)oxy)ethyl)phenyl)decanediamide] | 1 to 100
Cc1cccc(/C=N/Nc2cc(N3CCOCC3)nc(OCCc3ccc(NC(=O)CNC(=O)COc4cc(-c5scnc5C)ccc4CNC(=O)[C@@H]4C[C@@H](O)CN4C(=O)[C@@H](NC(=O)C4(F)CC4)C(C)(C)C)cc3)n2)c1 [Example 54, (2S,4R)-1-((S)-2-(1-fluorocyclopropane-1-carboxamido)-3,3-dimethylbutanoyl)-4-hydroxy-N-(2-(2-((2-((4-(2-((4-(2-((E)-3-methylbenzylidene)hydrazino)-6-morpholinopyrimidin-2-yl)oxy)ethyl)phenyl)amino)-2-oxoethyl)amino)-2-oxoethoxy)-4-(4-methylthiazol-5-yl)benzyl)pyrrolidine-2-carboxamide] | 1 to 100
